Measured values: patent publication US20240051978A1, “3-CYCLIC AMINE-INDOLE DERIVATIVES AS SEROTONERGIC AGENTS FOR THE TREATMENT OF CNS DISORDERS” (MINDSET PHARMA INC., priority 2020, published 2024)
Read-outs that look alike come from different tables or passages of the source.

What was measured:
[1] = cited from earlier work
[2] = target: human 5-HT2A (h5-HT2A) receptor (Homo sapiens (Human), UniProt P28223); experiment: FLIPR assay, human 5-HT2A receptor under agonist mode; assay type: cell-based; settings: FLIPR calcium
Protocol: I. Assessment of the Activated Effect of Exemplary Compounds of Formula I Targeting on Human 5-HT2A (h5-HT2A) Receptor Under Agonist Mode:
1. the Cells were cultured in cell culture medium (DMEM containing 10% FBS 1×penicillin-streptomycin 300 μg/ml G418 and 100 μg/ml hygromycin B) at 37° C., 5% (v/v) CO2.
2. One day before the assays, the cells were detached using TrypLE™ Express and cells were counted using cell counter.
3. 20000 cells/well were seeded in 30 μl/well culture medium to a 384-well cell plate and the cells were incubated overnight at 37° C., 5% (v/v) CO2.
4. On the assay day, 2× dye solution was prepared following the manual of the FLIPR® Calcium 6 Assay Kit: i. The dye was diluted with assay buffer(20 mM HEPES in 1×HBSS, PH7.4); ii. Probenecid was added to the final concentration of 5 mM; iii. Vortex vigorously for 1-2 minutes.
5. Medium was removed from cell plate by flicking the cell plate on towel papers.
6. 10 μl of assay buffer and 10 μl of 2× dye solution was added to each well of the cell plate.
7. The cell plate was placed on plate shaker, and the plate was agitated at 600 rpm for 2 minutes. The plate was incubated at 37° C. for 2 hours followed by additional 15-minute incubation at 25° C.
8. 3× compound in assay buffer was prepared: a. reference compounds were diluted to required concentration with DMSO. Compounds were added to a 384-well compound plate; b. Serial dilutions were performed; c. 10 mM test compounds were added to the compound plate, 3-fold serial dilutions were performed. d. […] 20 μl/well assay buffer was added to the compound plate; f. The plate was mixed on plate shaker for 2 mins;
i. The normalized fluorescence reading (RFU) was calculated as shown below, wherein Fmax and Fmin stand for maximum and minimum of calcium signal during defined time window: RFU=Fmax−Fmin
ii. The percentage activation was calculated by using following equation: […]
iii. EC50 was calculated by fitting % activation against log of compound concentrations with Hill equation using XLfit.

human 5-HT2A receptor = human 5-HT2A receptor (Homo sapiens (Human), UniProt P28223); experiment: Radioligand binding assay ([3H]-ketanserin) on human 5-HT2A receptor; settings: [3H]-ketanserin competition; read-out: h5-HT2A IC50
Protocol: • i. The assay buffer was prepared following the table below;
• ii. 8 doses of reference and exemplary test compounds were prepared starting from 10 mM stock solution as requested by 5-fold serial dilutions with 100%; • iii. (v/v) DMSO was prepared: a. 50 μl/well of 0.5% (v/v) PEI was added to UniFilter-96 GF/B plates. The plates were sealed and incubates at 4° C. for 3 hrs; b. After incubation, the plates were washed 3 times with ice-cold wash buffer (50 mM Tris, pH7.4); • iv. Preparation of assay plates: a. Cell membrane was diluted with assay buffer and 330 μl/well was added to 96 round deep well plates to reach a concentration of 20 μg/well; b. 8 concentrations of reference or exemplary test compounds were prepared and added 110 μl/well to 96 round deep well plates; c. [3H]-ketanserin was diluted with assay buffer to 5 nM (5× final concentration) and added 110 μl/well to 96 round deep well plates. • v. The plate were centrifuged at 1000 rpm for 30 secs and then agitated at 600 rpm, R.T. for 5 min. • vi. The plates were sealed and incubated at 27° C. for 90 min. • vii. The incubation was stopped by vacuum filtration onto GF/B filter plates followed by 4 times washing with ice-cold wash buffer (50 mM Tris, pH7.4). • vii. […] The filter plates were sealed and 40 μl/well of scintillation cocktail added. • x. The plate was read by using a Microbeta2 microplate counter.
For reference and exemplary test compounds, the results are expressed as % Inhibition, using the normalization equation: N=100−100×(U−C2)/(C1−C2), where U is the unknown value, C1 is the average of high controls, and C2 is the average of low controls. The IC50 was determined by fitting percentage of inhibition as a function of compound concentrations with Hill equation using XLfit.

[3] = Liver microsomes stability, human; settings: for Remaining Percentage (%) 0 min / Remaining Percentage (%) 60 min: Human; for CLint scaled at 2 μM / half-life at 2 μM / microsomal CLint at 2 μM: human, microsomes
Protocol: (§1) The objective of this study was to estimate in vitro metabolic stability of 1-12 in pooled human and male mouse liver microsomes. The concentrations of parent compounds in reaction systems were evaluated by LC-MS/MS for estimating the stability in pooled human and male mouse liver microsomes. The in vitro intrinsic clearances of test compounds were determined as well.
(§2) A master solution in the “Incubation Plate” containing phosphate buffer, ultra-pure H2O, MgCl2 solution and liver microsomes was made according to Table 3. The mixture was pre-warmed at 37° C. water bath for 5 minutes.
(§3) 40 μL of 10 mM NADPH solution was added to each well. The final concentration of NADPH was 1 mM. The negative control samples were prepared by replacing NADPH with 40 μL of ultra-pure H2O. Samples were prepared in duplicate. Negative controls were prepared in singlet.
(§4) The reaction was started with the addition of 4 μL of 200 μM exemplary test compounds or control compounds to each master solution to get the final concentration of 2 μM. This study was performed in duplicate.
(§5) Aliquots of 50 μL were taken from the reaction solution at 0, 15, 30, 45 and 60 minutes. The reaction solutions were stopped by the addition of 4 volumes of cold methanol with IS (100 nM alprazolam, 200 nM imipramine, 200 nM labetalol and 2 μM ketoprofen). Samples were centrifuged at 3,220 g for 40 minutes. Aliquot of 90 μL of the supernatant was mixed with 90 μL of ultra-pure H2O and then was used for LC-MS/MS analysis.
(§6) LC/MS analysis was performed for all samples from this study using a Shimadzu liquid chromatograph separation system equipped with degasser DUG-20A5R; solvent delivery unit LC-30AD; system controller SIL-30AC; column oven CTO-30A; CTC Analytics HTC PAL System; Mass spectrometric analysis was performed using an Triple Quad™ 5500 instrument.
(§7) All calculations were carried out using Microsoft Excel. Peak area ratios of test compound to internal standard (listed in the below table) were determined from extracted ion chromatograms.
(§8) All calculations were carried out using Microsoft Excel. Peak areas were determined from extracted ion chromatograms. The slope value, k, was determined by linear regression of the natural logarithm of the remaining percentage of the parent drug vs. incubation time curve.
(§9) The in vitro half-life (in vitro t½) was determined from the slope value:
(§10) Conversion of the in vitro t½ (min) into the in vitro intrinsic clearance (in vitro CLint, in μL/min/mg proteins) was done using the following equation (mean of duplicate determinations): […]

[4] = Liver microsomes stability, rat; settings: for Predicted hepatic CL: Rat liver microsomes, with NADPH; for Remaining Percentage (%) 0 min / Remaining Percentage (%) 60 min: Rat; for CLint scaled at 2 μM / half-life at 2 μM / microsomal CLint at 2 μM: rat, microsomes
Protocol: as §1, §2, §3, §4, §5, §6, §7, §8, §9, §10

[5] = Liver microsomes stability, mouse; settings: for Predicted hepatic CL: Mouse liver microsomes, with NADPH; for Remaining Percentage (%) 0 min / Remaining Percentage (%) 60 min: Mouse; for CLint scaled at 2 μM / half-life at 2 μM / microsomal CLint at 2 μM: male, mouse, microsomes
Protocol: as §1, §2, §3, §4, §5, §6, §7, §8, §9, §10

[6] = Human liver microsomes, with NADPH

SMILES	EC50 [2] [nM]	IC50 (human 5-HT2A receptor) [nM]	Predicted hepatic CL [3, 6] [mL/min/kg]	Remaining Percentage (%) 0 min ([3]; With NADPH) [%]	Remaining Percentage (%) 60 min ([3]; With NADPH) [%]	Remaining Percentage (%) 0 min ([3]; Without NADPH) [%]	Remaining Percentage (%) 60 min ([3]; Without NADPH) [%]	Predicted hepatic CL [4] [mL/min/kg]	Remaining Percentage (%) 0 min ([4]; With NADPH) [%]	Remaining Percentage (%) 60 min ([4]; With NADPH) [%]	Remaining Percentage (%) 0 min ([4]; Without NADPH) [%]	Remaining Percentage (%) 60 min ([4]; Without NADPH) [%]	CLint scaled at 2 μM [4] [mL/min/kg]	half-life at 2 μM [4] [h]	microsomal CLint at 2 μM [4] [µL/min/mg]	Predicted hepatic CL [5] [mL/min/kg]	Remaining Percentage (%) 0 min ([5]; With NADPH) [%]	Remaining Percentage (%) 60 min ([5]; With NADPH) [%]	Remaining Percentage (%) 0 min ([5]; Without NADPH) [%]	Remaining Percentage (%) 60 min ([5]; Without NADPH) [%]	also measured
CN(C)CCc1c[nH]c2cccc(OP(=O)(O)O)c12 [Psilocybin, 4-phosphoryloxy-N,N-dimethyltrypatmine]																					abstinence rate ([1]; 12 months follow-up): 67%; abstinence rate ([1]; six months follow-up): 80%
[2H]C1([2H])CC(c2c[nH]c3cccc(OCc4ccccc4)c23)C([2H])([2H])N1 (stereo not drawn) [Compound I-35, 4-(benzyloxy)-3-(pyrrolidin-3-yl-2,2,5,5-d4)-1H-indole]	< 1000	< 1000	0.00	100.00	104.21	100.00	119.60	17.94	100.00	64.09	100.00	103.32	26.6	1.56	14.8	32.19	100.00	70.91	100.00	90.87	T1/2 (min) ([3]; Human liver microsomes, with NADPH, 2 μM): ∞; CLint scaled at 2 μM [5]: 50.1 mL/min/kg; half-life at 2 μM [5]: 2.02 h; microsomal CLint at 2 μM [5]: 11.5 µL/min/mg
[2H]C1([2H])CC(c2c[nH]c3cccc(O)c23)C([2H])([2H])N1C (stereo not drawn) [Compound I-34, 3-(1-methylpyrrolidin-3-yl-2,2,5,5-d4)-1H-indol-4-ol]	< 1000	1000 to 10000	4.02	100.00	88.74	100.00	80.14	23.24	100.00	51.06	100.00	85.53	40.1	1.03	22.4	38.03	100.00	63.66	100.00	96.60	CLint scaled at 2 μM [3]: 4.99 mL/min/kg; half-life at 2 μM [3]: 5.8 h; microsomal CLint at 2 μM [3]: 3.98 µL/min/mg; CLint scaled at 2 μM [5]: 65.9 mL/min/kg; half-life at 2 μM [5]: 1.53 h; microsomal CLint at 2 μM [5]: 15.1 µL/min/mg
[2H]C([2H])N1CCC(c2c[nH]c3cccc(O)c23)C1 (stereo not drawn) [Compound I-32, 3-(1-(methyl-d2)pyrrolidin-3-yl)-1H-indol-4-ol]	< 1000	1000 to 10000	3.99	100.00	88.84	100.00	96.34	0.96	100.00	98.37	100.00	92.79	0.98	42.2	0.55	18.85	100.00	84.91	100.00	116.03	CLint scaled at 2 μM [3]: 4.95 mL/min/kg; half-life at 2 μM [3]: 5.86 h; microsomal CLint at 2 μM [3]: 3.94 µL/min/mg; CLint scaled at 2 μM [5]: 23.9 mL/min/kg; half-life at 2 μM [5]: 4.24 h; microsomal CLint at 2 μM [5]: 5.45 µL/min/mg
